Laboratory results from ChEMBL document CHEMBL5303304, “EUbOPEN Chemogenomics Library - IncuCyte” (2023).

How the values were obtained:
Type in all cases: toxicity, cell-based
Fibroblast = experiment: Incucyte cell viability with human fibroblast; conditions: 10 µM, compound concentration 10 uM
U2OS = experiment: Incucyte cell viability with U2OS; conditions: human, 10 µM, compound concentration 10 uM
HEK-293T = experiment: Incucyte cell viability with HEK293T; conditions: human, 10 µM, compound concentration 10 uM
Also: unitless GR value; below 1 slowed growth and below 0 cell loss.

SMILES	Growth Rate (Fibroblast; 6 h, replicate number 2)	Growth Rate (Fibroblast; 12 h, replicate number 2)	Growth Rate (Fibroblast; 18 h, replicate number 2)	Growth Rate (Fibroblast; 24 h, replicate number 2)	Growth Rate (U2OS; 0 h, replicate number 1)	Growth Rate (U2OS; 6 h, replicate number 1)	Growth Rate (U2OS; 12 h, replicate number 1)	Growth Rate (U2OS; 18 h, replicate number 1)	Growth Rate (U2OS; 24 h, replicate number 1)	Growth Rate (HEK-293T; 0 h, replicate number 1)	Growth Rate (HEK-293T; 0 h, replicate number 2)	Growth Rate (Fibroblast; 0 h, replicate number 1)	Growth Rate (Fibroblast; 0 h, replicate number 2)	Growth Rate (Fibroblast; 24 h, replicate number 1)	Growth Rate (U2OS; 0 h, replicate number 2)	Growth Rate (U2OS; 24 h, replicate number 2)	Growth Rate (HEK-293T; 12 h, replicate number 1)	Growth Rate (U2OS; 12 h, replicate number 2)	Growth Rate (Fibroblast; 12 h, replicate number 1)	Growth Rate (HEK-293T; 12 h, replicate number 2)	further results
C[C@@H]1Cc2c([nH]c3ccccc23)[C@@H](c2c(F)cc(/C=C/C(=O)O)cc2F)N1CC(C)(C)F [AZD-9496]	-0.38	0.62	0.88	0.65	0.01	0.39	0.94	0.92	0.91	-0.59	-0.31	–	–	–	–	–	–	–	–	–	–
COC(=O)c1ccc2c(c1)NC(=O)/C2=C(\Nc1ccc(N(C)C(=O)CN2CCN(C)CC2)cc1)c1ccccc1 [NINTEDANIB]	–	–	–	–	0.64	-0.05	–	0.97	–	–	–	0.43	-0.14	0.4	0.08	0.99	0.57	–	–	–	Growth Rate (HEK-293T; 6 h, replicate number 1): -0.42
COc1cc(Oc2nc(-c3ccc(NC(=O)C4CCOC4)cc3)nn3c(C)nc(C)c23)cc(OC)c1OC (stereo unspecified)	–	0.75	–	–	–	0.98	–	–	0.87	–	–	–	0.03	–	–	–	–	0.94	–	–	Growth Rate (HEK-293T; 24 h, replicate number 1): 0.96
CN1CC[C@@]23CCCC[C@@H]2[C@@H]1Cc1ccc(O)cc13.O=C(O)C(O)C(O)C(=O)O	-0.93	-0.3	0.13	0.19	–	–	–	–	–	0.54	0.37	0.67	–	–	-0.41	–	–	–	-0.94	–	Growth Rate (Fibroblast; 18 h, replicate number 1): 0.72
O=C(O)CNC(=O)c1c(O)c2ccccc2n(Cc2ccccc2)c1=O	0.61	0.68	0.94	–	0.29	–	0.92	0.86	–	-0.08	-0.1	–	0.56	–	0.34	0.97	–	0.94	0.75	0.91	Growth Rate (U2OS; 6 h, replicate number 2): 0.74; Growth Rate (U2OS; 18 h, replicate number 2): 0.9; Growth Rate (HEK-293T; 18 h, replicate number 2): 0.99; Growth Rate (HEK-293T; 24 h, replicate number 2): 0.93
O=C(Cc1ccccc1)Nc1nnc(N2C[C@H]3C[C@@H]2CN3c2cccnn2)s1 [A-446]	-0.04	0.18	0.19	0.04	0.34	0.82	0.68	0.54	0.87	0.58	-0.11	–	0.67	0.33	0.56	0.77	0.83	0.59	0.45	0.97	Growth Rate (Fibroblast; 6 h, replicate number 1): 0.15; Growth Rate (Fibroblast; 18 h, replicate number 1): 0.27; Growth Rate (U2OS; 6 h, replicate number 2): 0.43; Growth Rate (U2OS; 18 h, replicate number 2): 0.8; Growth Rate (HEK-293T; 6 h, replicate number 2): 0.68; Growth Rate (HEK-293T; 18 h, replicate number 2): 0.86; Growth Rate (HEK-293T; 24 h, replicate number 1): 0.93; Growth Rate (HEK-293T; 24 h, replicate number 2): 0.94
FC(F)(F)c1ccccc1-c1cc(C(F)(F)F)c2[nH]c(C3=NOC4(CCCCC4)C3)nc2c1	-0.79	-0.41	-0.08	-0.03	–	–	–	–	–	–	–	–	–	–	-0.12	0.94	-0.3	0.98	–	-0.05	Growth Rate (HEK-293T; 6 h, replicate number 1): 0.12; Growth Rate (HEK-293T; 6 h, replicate number 2): -0.15; Growth Rate (HEK-293T; 18 h, replicate number 1): -0.22; Growth Rate (HEK-293T; 18 h, replicate number 2): -0.02; Growth Rate (HEK-293T; 24 h, replicate number 1): -0.23; Growth Rate (HEK-293T; 24 h, replicate number 2): 0
CCCN1C(=O)c2ccc(Cl)cc2Nc2ncccc21	-0.63	0.55	0.62	–	0.38	0.65	–	–	0.98	–	–	-1	–	0.63	–	–	–	0.68	0.9	0.86	Growth Rate (Fibroblast; 6 h, replicate number 1): 0.56; Growth Rate (Fibroblast; 18 h, replicate number 1): 0.68; Growth Rate (U2OS; 18 h, replicate number 2): 0.91
